According to US9386769B2 (HUNAN RESEARCH INSTITUTE OF CHEMICAL INDUSTRY CO., LTD., priority 2011, dated 2016):
Read-outs that look alike come from different tables or passages of the source.

Tests used:
Fusarium oxysporum = experiment: Fungicidal activity against Fusarium oxysporum; format: cell-based; settings: 25 mg/L
Description: (§1) Bioassay method: Stock solution of every test compound was prepared in an appropriate solvent such as N,N-dimethylformamide (DMF), and then diluted to the required test concentrations with sterile water containing 0.1% Tween 80; Pipetted 3 mL of test solution to 27 mL of potato dextrose agar (PDA) medium at 45° C. and poured into a Petri dish to prepare a plate after shaking thoroughly; 6 mm of diameter of fungi cake from the edge of 7-day-old […] colony was inoculated on the central of the plate, wherein mycelium facing down, and cultured in the culture tank at 28° C. The diameter of fungi spread was calculated 4 days later using the control group tested with the diluent only. Test was run 4 times. Data were subjected to EXCEL statistical software analysis and the growth inhibition of the tested compound was calculated according to the corresponding control, the activity was rated on the basis of percentage of growth inhibition using the following rating system: A, inhibition (%)>90; B, 90≧inhibition (%)>70; C, 70≧inhibition (%)>50; D, inhibition (%)≦50.

[1] = system: Alternaria solani, Fusarium oxysporum, Marssonina coronaria, Sphaceloma ampelinum, Apple canker, Cercospora arachidicola and Alternaria mali; experiment: Fungicidal activities against several pathogens (Example 21), comparison with Procymidone; format: cell-based; settings: several pathogens of Example 21
Description: as §1

Alternaria solani = experiment: Fungicidal activity against Alternaria solani; format: cell-based; settings: 25 mg/L
Description: as §1

Botrytis cinerea = experiment: Fungicidal activity against Botrytis cinerea, mycelial growth inhibition on PDA plate; format: cell-based; settings: Botrytis cinerea; for inhibition at 2.5 µg/mL: 2.5 mg/L; for inhibition at 5 µg/mL: 5 mg/L
Description: as §1
Fungicidal activities against Botrytis cinerea of compounds represented by the general formula (I) were evaluated with the corresponding method in Example 18, and some of the test results are shown in Table 6 to Table 8.

Marssonina coronaria = experiment: Fungicidal activity against Marssonina coronaria; format: cell-based; settings: 25 mg/L
Description: as §1

Aphis fabae = experiment: Insecticidal activity against Aphis fabae, dipping of horsebean seedlings; format: in vivo; settings: 24 h
Description: Bioassay method: Stock solution of every test compound was prepared in an appropriate solvent such as N,N-dimethylformamide, and a small amount of Tween 80 was added as emulsification agent, then diluted to the required test concentrations with distilled water, using the control group tested with distilled water only. More than 20 adults of Aphis fabae were transferred to newly unearthed horsebean seedlings and 24 hr later, horsebean seedlings with Aphis fabae were dipped in the test solution for 5 s, then allowed to dry with filter paper, transplanted to the absorbent sponge and covered with a glass tube, then kept in a room for normal cultivation. Each assay contained three replications, and results were averaged. Mortality was assessed 24 hr after the treatment. The activity was rated to A, B, C or D according to the rating system in Example 22.

Alternaria mali = experiment: Fungicidal activity against Alternaria mali; format: cell-based; settings: 25 mg/L
Description: as §1

Sclerotinia sclerotiorum = experiment: Fungicidal activity against Sclerotinia sclerotiorum, mycelial growth inhibition on PDA plate; format: cell-based; settings: Sclerotinia sclerotiorum; for inhibition at 2.5 µg/mL: 2.5 mg/L; for inhibition at 5 µg/mL: 5 mg/L
Description: as §1

Sphaceloma ampelinum = experiment: Fungicidal activity against Sphaceloma ampelinum; format: cell-based; settings: 25 mg/L
Description: as §1

Alternaria alternata = experiment: Fungicidal activity against Alternaria alternata, mycelial growth inhibition on PDA plate; format: cell-based; settings: Alternaria alternata
Description: as §1
Fungicidal activities against Alternaria alternata of compounds represented by the general formula (I) were evaluated with the corresponding method in Example 18, and some of the test results are shown in Table 9 to Table 10.

Cercospora arachidicola = experiment: Fungicidal activity against Cercospora arachidicola; format: cell-based; settings: 25 mg/L
Description: as §1

[2] = Table 7, read-out: activities against Botrytis cinerea (growth inhibition)
[3] = Table 8, read-out: activities against Botrytis cinerea (growth inhibition)
[4] = read-out: activities against Aphis fabae (mortality)
[5] = Table 4, read-out: activities against Sclerotinia sclerotiorum (growth inhibition)
[6] = Table 5, read-out: activities against Sclerotinia sclerotiorum (growth inhibition)

Structure (SMILES): CCN(Cc1cnc(Cl)s1)c1nc(OC)ccc1[N+](=O)[O-] [Compound 05, 6-methoxy-N-((2-chlorothiazole-5-yl)methyl)-N-ethyl-3-nitropyridin-2-amine]
- activity against Fusarium oxysporum (Fusarium oxysporum): 38%
- fungicidal activity compared with the commercial fungicide Procymidone [1]: better than or equal to that of the commercial fungicide Procymidone
- activity against Alternaria solani (Alternaria solani): 87%
- inhibition at 0.1562 µg/mL (Botrytis cinerea; 0.1562 mg/L, Table 8, read-out: activities against Botrytis cinerea (growth inhibition)): 78%
- inhibition at 0.3125 µg/mL (Botrytis cinerea; 0.3125 mg/L, Table 8, read-out: activities against Botrytis cinerea (growth inhibition)): 84%
- inhibition at 0.625 µg/mL (Botrytis cinerea; 0.625 mg/L, Table 8, read-out: activities against Botrytis cinerea (growth inhibition)): 88%
- inhibition at 1.25 µg/mL (Botrytis cinerea; 1.25 mg/L, Table 7, read-out: activities against Botrytis cinerea (growth inhibition)): 89%
- inhibition at 1.255 µg/mL (Botrytis cinerea; 1.255 mg/L, Table 8, read-out: activities against Botrytis cinerea (growth inhibition)): 94%
- inhibition at 2.5 µg/mL (Botrytis cinerea; [2]): 92%
- inhibition at 2.5 µg/mL (Botrytis cinerea; [3]): 98%
- inhibition at 5 µg/mL (Botrytis cinerea; [2]): 97%
- inhibition at 5 µg/mL (Botrytis cinerea; [3]): 100%
- inhibition at 10 µg/mL (Botrytis cinerea; 10 mg/L, Table 7, read-out: activities against Botrytis cinerea (growth inhibition)): 100%
- inhibition at 25 µg/mL (Botrytis cinerea; 25 mg/L, read-out: activities against Botrytis cinerea (growth inhibition rating)): > 90%
- activity against Marssonina coronaria (Marssonina coronaria): 78%
- mortality at 500 µg/mL (Aphis fabae; read-out: activities against Aphis fabae (mortality rating)): > 90%
- mortality at 6.25 µg/mL (Aphis fabae; [4]): 12.7%
- mortality at 25 µg/mL (Aphis fabae; [4]): 46.5%
- mortality at 100 µg/mL (Aphis fabae; [4]): 87.5%
- activity against Alternaria mali (Alternaria mali): 82%
- inhibition at 0.1562 µg/mL (Sclerotinia sclerotiorum; 0.1562 mg/L, Table 5, read-out: activities against Sclerotinia sclerotiorum (growth inhibition)): 63%
- inhibition at 0.3125 µg/mL (Sclerotinia sclerotiorum; 0.3125 mg/L, Table 5, read-out: activities against Sclerotinia sclerotiorum (growth inhibition)): 63%
- inhibition at 0.625 µg/mL (Sclerotinia sclerotiorum; 0.625 mg/L, Table 5, read-out: activities against Sclerotinia sclerotiorum (growth inhibition)): 68%
- inhibition at 1.25 µg/mL (Sclerotinia sclerotiorum; 1.25 mg/L, Table 4, read-out: activities against Sclerotinia sclerotiorum (growth inhibition)): 95%
- inhibition at 1.255 µg/mL (Sclerotinia sclerotiorum; 1.255 mg/L, Table 5, read-out: activities against Sclerotinia sclerotiorum (growth inhibition)): 73%
- inhibition at 2.5 µg/mL (Sclerotinia sclerotiorum; [5]): 99%
- inhibition at 2.5 µg/mL (Sclerotinia sclerotiorum; [6]): 90%
- inhibition at 5 µg/mL (Sclerotinia sclerotiorum; [5]): 100%
- inhibition at 5 µg/mL (Sclerotinia sclerotiorum; [6]): 96%
- inhibition at 10 µg/mL (Sclerotinia sclerotiorum; 10 mg/L, Table 4, read-out: activities against Sclerotinia sclerotiorum (growth inhibition)): 100%
- inhibition at 25 µg/mL (Sclerotinia sclerotiorum; 25 mg/L, read-out: activities against Sclerotinia sclerotiorum (growth inhibition rating)): > 90%
- activity against Sphaceloma ampelinum (Sphaceloma ampelinum): 93%
- inhibition at 2.5 µg/mL (Alternaria alternata; 2.5 mg/L, read-out: activities against Alternaria alternata (growth inhibition)): 45%
- inhibition at 5 µg/mL (Alternaria alternata; 5 mg/L, read-out: activities against Alternaria alternata (growth inhibition)): 75%
- inhibition at 10 µg/mL (Alternaria alternata; 10 mg/L, read-out: activities against Alternaria alternata (growth inhibition)): 81%
- inhibition at 25 µg/mL (Alternaria alternata; 25 mg/L, read-out: activities against Alternaria alternata (growth inhibition rating)): 70 to 90%
- activity against Cercospora arachidicola (Cercospora arachidicola): 88%
